Experimental data as given in ChEMBL document CHEMBL3875182 (Bioorg Med Chem, 2017).
Values after ≈ are worked out from the molar mass of the structure shown.

Tests used:
[1] = system: Mycobacterium tuberculosis; test: Antibacterial activity against isoniazid/rifampin-resistant Mycobacterium tuberculosis after 8 to 9 days by BacT/Alert MP bottle assay; type: functional
[2] = system: Mycobacterium tuberculosis; test: Antibacterial activity against rifampin-resistant Mycobacterium tuberculosis after 8 to 9 days by BacT/Alert MP bottle assay; type: functional

Work on `O=[N+]([O-])c1ccc(C2=Nn3c(nnc3-c3ccc(Br)cc3)SC2)cc1` yielded an MIC [1] of 2 µg/mL (≈ 4.8 µM) and an MIC [2] of 0.25 µg/mL (≈ 0.601 µM).
For `CO[C@H]1/C=C/O[C@@]2(C)Oc3c(C)c(O)c4c(O)c(c(/C=N/N5CCN(C)CC5)c(O)c4c3C2=O)NC(=O)/C(C)=C\C=C\[C@H](C)[C@H](O)[C@@H](C)[C@@H](O)[C@@H](C)[C@H](OC(C)=O)[C@@H]1C` [RIFAMPIN], the MIC [1] was ≥ 16 µg/mL and the MIC [2] was 16 µg/mL (≈ 19.4 µM).
`c1ccc(C2=Nn3c(nnc3-c3ccccc3)SC2)cc1` gave an MIC [1] of 4 µg/mL (≈ 13.7 µM) and an MIC [2] of 2 µg/mL (≈ 6.84 µM).
Compound `NNC(=O)c1ccncc1` [ISONIAZID] has an MIC [1] of 4 µg/mL (≈ 29.2 µM) and an MIC [2] of 1 µg/mL (≈ 7.29 µM).
Work on `O=[N+]([O-])c1ccc(C2=Nn3c(nnc3-c3ccncc3F)SC2)cc1` yielded an MIC [1] of 4 µg/mL (≈ 11.2 µM) and an MIC [2] of 2 µg/mL (≈ 5.61 µM).
`O=[N+]([O-])c1ccc(C2=Nn3c(Cc4ccc5ccccc5c4)nnc3SC2)cc1` was tested, and the MIC [1] was 4 µg/mL (≈ 9.96 µM) and the MIC [2] was 4 µg/mL (≈ 9.96 µM).
With `Fc1ccc(-c2nnc3sc(COc4ccccc4)nn23)cc1` the MIC [1] was 8 µg/mL (≈ 24.5 µM) and the MIC [2] was 8 µg/mL (≈ 24.5 µM).
For `Brc1ccc(-c2nnc3n2N=C(c2ccccc2)CS3)cc1`, the MIC [1] was 2 µg/mL (≈ 5.39 µM) and the MIC [2] was 1 µg/mL (≈ 2.69 µM).
With `COc1ccc(C2=Nn3c(nnc3-c3ccncc3)SC2)cc1` the MIC [1] was 4 µg/mL (≈ 12.4 µM) and the MIC [2] was 2 µg/mL (≈ 6.18 µM).
